Data as given in patent US20120190669A1, “OXINDOLE COMPOUNDS” (CYLENE PHARMACEUTICALS, INC., priority 2008, published 2012).

tested on: MV-4-11; assay: Alamar Blue cell proliferation assay, MV-4-11; format: cell-based; settings: Homo sapiens, MV4-11, Table 4, read-out: AB: MV-4-11
Description: (§1) A representative cell-proliferation assay protocol using Alamar Blue dye (stored at 4° C., use 20 ul per well) is described hereafter.
(§2) 96-Well Plate Setup and Compound Treatment
(§3) a. Split and trypsinize cells.
(§4) b. Count cells using hemocytometer.
(§5) c. Plate 4,000-5,000 cells per well in 100 μl of medium and seed into a 96-well plate according to the following plate layout. Add cell culture medium only to wells B10 to B12. Wells B1 to B9 have cells but no compound added.
(§6) d. Add 100 μl of 2× drug dilution to each well in a concentration shown in the plate layout above. At the same time, add 100 μl of media into the control wells (wells 1310 to B12). Total volume is 200 μl/well.
(§7) e. Incubate four (4) days at 37° C., 5% CO2 in a humidified incubator.
(§8) f. Add 20 μl Alamar Blue reagent to each well.
(§9) g. Incubate for four (4) hours at 37° C., 5% CO2 in a humidified incubator.
(§10) h. Record fluorescence at an excitation wavelength of 544 nm and emission wavelength of 590 nm using a microplate reader.
(§11) In the assays, cells are cultured with a test compound for approximately four days, the dye is then added to the cells and fluorescence of […] dye is detected after approximately four hours. Different types of cells can be utilized in the assays (e.g., HCT-116 human colorectal carcinoma cells, PC-3 human prostatic cancer cells and MiaPaca human pancreatic carcinoma cells).

Row | IC50 [µM] | Structure (SMILES)
1 | 2.44 | Nc1cccc(-c2ccc(/C=C3/C(=O)Nc4ccccc43)o2)c1 [drawing 234]

tested on: K-562; assay: Alamar Blue cell proliferation assay, K-562; format: cell-based; settings: Homo sapiens, K562, Table 4, read-out: AB: K-562
Description: as §1, §2, §3, §4, §5, §6, §7, §8, §9, §10, §11

Row | IC50 [µM] | Structure (SMILES)
2 | 5.13 | Nc1cccc(-c2ccc(/C=C3/C(=O)Nc4ccccc43)o2)c1 [drawing 234]

target: recombinant PIM-1 (Homo sapiens, UniProt P11309); assay: PIM-1 kinase assay (radiometric, 15 uM ATP, DMSO 4%); format: biochemical; settings: Table 1; % inhibition at the high dose (2 micromolar) in a single screening assay; 15 μM ATP
Sequence (P11309 whole entry): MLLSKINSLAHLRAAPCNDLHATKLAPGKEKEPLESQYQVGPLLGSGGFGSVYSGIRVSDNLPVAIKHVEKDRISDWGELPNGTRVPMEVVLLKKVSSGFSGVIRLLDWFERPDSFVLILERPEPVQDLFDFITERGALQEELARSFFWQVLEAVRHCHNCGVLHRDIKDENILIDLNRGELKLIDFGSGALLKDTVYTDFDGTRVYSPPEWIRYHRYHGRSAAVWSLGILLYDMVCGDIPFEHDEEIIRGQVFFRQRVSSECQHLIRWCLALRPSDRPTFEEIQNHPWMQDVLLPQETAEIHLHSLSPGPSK

Row | Structure (SMILES) | inhibition at 2 µM [%]
3 | CCN(CC)CCNC(=O)c1ccccc1-c1ccc(/C=C2/C(=O)Nc3ccc(F)cc32)o1 [Compound 68] | 11.2
4 | O=C1Nc2c(Cl)cccc2/C1=C\c1ccc(-c2ccc(Cl)c(C(=O)NCCN3CCCC3)c2)o1 [Compound 105] | -16.7
5 | CN1C(=O)/C(=C/c2ccc(-c3cccc(C(=O)O)c3)o2)c2ccccc21 [Compound 2] | 31.6
6 | CN1CCCCC1CNC(=O)c1ccccc1-c1ccc(/C=C2/C(=O)Nc3ccccc32)o1 (stereo not shown) [Compound 60] | 0.33
7 | CN1CCCC(NC(=O)c2ccc(-c3ccc(/C=C4/C(=O)Nc5ccc(F)cc54)o3)cc2)C1 (stereo not shown) [Compound 85] | 84.5
8 | O=C1Nc2ccc(F)cc2/C1=C\c1ccc(-c2ccc(Cl)c(C(=O)NCCN3CCCC3)c2)o1 [Compound 73] | 20.9
9 | O=C1Nc2ccc(F)cc2/C1=C\c1cc(-c2cccc(C(=O)NCc3ccncc3)c2)co1 [Compound 95] | -19.1
10 | O=C1Nc2c(cccc2C(F)(F)F)/C1=C\c1ccc(-c2cccc(C(=O)NCCN3CCCC3)c2)o1 [Compound 50] | 8.16

The next lines start with the values.

Row | inhibition at 2 µM [%] | Structure (SMILES)
11 | 27.2 | O=C1Nc2ccccc2/C1=C\c1ccc(-c2ccc(C(=O)NCCN3CCCC3)nc2)o1 [Compound 128]
12 | 38.1 | CN(C)C1CCN(C(=O)c2cccc(-c3ccc(/C=C4/C(=O)Nc5ccc(Cl)cc54)o3)c2)CC1 [Compound 113]
13 | 20.6 | CN1CCCN(C(=O)c2ccc(-c3ccc(/C=C4/C(=O)Nc5ccccc54)o3)cn2)CC1 [Compound 137]
14 | -3.02 | O=C1Nc2ccccc2/C1=C\c1ccc(-c2cccc(C(=O)Nc3nccs3)c2)o1 [Compound 167]

same assay, conditions: Table 1; given for compounds with IC50 at or below 2 micromolar; 15 uM ATP; read-out: PIM-1 IC50

Row | IC50 [µM] | Structure (SMILES)
15 | < 2 | CN1CCCC(NC(=O)c2ccc(-c3ccc(/C=C4/C(=O)Nc5ccc(F)cc54)o3)cc2)C1 (stereo not shown) [Compound 85]

same assay, conditions: Table 4; 15 um ATP; read-out: PIM1: IC50 (15 um ATP)

Row | IC50 [µM] | Structure (SMILES)
16 | 0.992 | Nc1cccc(-c2ccc(/C=C3/C(=O)Nc4ccccc43)o2)c1 [drawing 234]
